Assay results from patent publication US9150575B2, “Piperidinylpyrazolopyridine derivative” (Daiichi Sankyo Company, Limited, priority 2012, dated 2015).

Key:
LCAT = target: T1, LCAT (Homo sapiens, UniProt P04180); experiment: LCAT Activity Measurement (In Vitro); type: biochemical; conditions: EC50 of LCAT activation; HDL3 fraction from plasma of a healthy person as enzyme source and acceptor; [14C]cholesterol; 37° C., approximately 16 hours
T1 construct: The obtained fraction was dialyzed against phosphate-buffered saline (pH 7.4) and used as an enzyme source and an acceptor for LCAT; from tissue; host or cells: HDL3 fraction (1.125<specific gravity<1.210 g/mL) of plasma from a healthy person
T1 sequence (P04180 25-440): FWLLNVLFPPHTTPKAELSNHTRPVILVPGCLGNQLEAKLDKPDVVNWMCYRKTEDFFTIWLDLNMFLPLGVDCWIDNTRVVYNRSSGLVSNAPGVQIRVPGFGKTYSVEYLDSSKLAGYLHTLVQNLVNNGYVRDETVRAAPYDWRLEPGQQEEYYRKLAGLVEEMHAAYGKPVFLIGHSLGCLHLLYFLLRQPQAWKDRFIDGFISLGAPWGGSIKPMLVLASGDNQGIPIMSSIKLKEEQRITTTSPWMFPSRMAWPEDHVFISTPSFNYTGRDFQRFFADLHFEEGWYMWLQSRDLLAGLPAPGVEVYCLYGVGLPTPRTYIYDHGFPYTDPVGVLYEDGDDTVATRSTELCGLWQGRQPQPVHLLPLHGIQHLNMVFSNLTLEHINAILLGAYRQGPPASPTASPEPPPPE
Outline: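 Human plasma HDL3 (1 mg/mL, PBS pH 7.4) served as enzyme and acceptor with [14C]cholesterol, 0.5 mM DTNB, 12.5 mM mercaptoethanol and 0.6% BSA; compounds in DMSO, incubated ~16 h at 37 °C. Cholesterol oleate radioactivity quantified after extraction and TLC; EC50 of activation fitted relative to no-drug control.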

cynomolgus monkey = experiment: Drug Efficacy Test in Cynomolgus Monkeys; type: in vivo; conditions: oral, single dose of 10 mg/kg, compared with before administration, from AUC before administration and 24 hours after administration
Method: Each test drug was dissolved in a propylene glycol (Sigma-Aldrich Corp.)-Tween 80 (Sigma-Aldrich Corp.) mixed solution [4/1 (v/v)] or a 0.5% (w/v) methylcellulose aqueous solution, and the solution was orally administered to a cynomolgus monkey for 1 or 7 days. At 1 or 7 day of administration period, blood was collected before administration and after administration, and plasma was obtained. The content of cholesterol in the plasma was measured using a commercially available assay kit (Cholesterol-E Wako, Wako Pure Chemical Industries, Ltd.). The lipoprotein profile was analyzed by HPLC (column: LipopropakXL, manufactured by Tosoh Corp.). The contents of HDL cholesterol and non-HDL cholesterol were calculated according to the following calculation expression: Content of HDL cholesterol=Content of cholesterol in the plasma×(Peak area of HDL cholesterol/Total sum of peaks) Content of non-HDL cholesterol=Content of cholesterol in the plasma×(Peak area of non-HDL cholesterol/Total sum of peaks)
The rate (%) of increase in HDL level after the administration of a single dose of 10 mg/kg compared with before administration was determined from AUC before administration and 24 hours after administration.

Structure (SMILES) | EC50 (LCAT) | Rate of increase in HDL level after administration of single dose (cynomolgus monkey)
O=C1CC(O)(C(F)(F)F)c2c(C3CCN(c4ccc(C(F)(F)F)cn4)CC3)n[nH]c2N1 (centres unmarked) [Example 8, 4-Hydroxy-4-(trifluoromethyl)-3-{1-[5-(trifluoromethyl)pyridin-2-yl]piperidin-4-yl}-1,4,5,7-tetrahydro-6H-pyrazolo[3,4-b]pyridin-6-one] | 21 nM | 531%
O=C1CC(O)(C(F)(F)F)c2c(C3CCN(c4ccc(OC(F)F)cc4)CC3)n[nH]c2N1 (single isomer, unassigned; (-)) [Compound 56-1, (−)-3-{1-[4-(Difluoromethoxy)phenyl]piperidin-4-yl}-4-hydroxy-4-(trifluoromethyl)-1,4,5,7-tetrahydro-6H-pyrazolo[3,4-b]pyridin-6-one] | 45 nM | 644%
O=C1CC(O)(C(F)(F)F)c2c(C3CCN(c4cccc(C(F)(F)F)n4)CC3)n[nH]c2N1 (centres unmarked) [Example 7, 4-Hydroxy-4-(trifluoromethyl)-3-{1-[6-(trifluoromethyl)pyridin-2-yl]piperidin-4-yl}-1,4,5,7-tetrahydro-6H-pyrazolo[3,4-b]pyridin-6-one] | 48 nM | 334%
O=C1CC(O)(C(F)(F)F)c2c(C3CCN(c4ncc(C(F)(F)F)cc4Cl)CC3)n[nH]c2N1 (centres unmarked) [Example 10, 3-{1-[3-Chloro-5-(trifluoromethyl)pyridin-2-yl]piperidin-4-yl}-4-hydroxy-4-(trifluoromethyl)-1,4,5,7-tetrahydro-6H-pyrazolo[3,4-b]pyridin-6-one] | 210 nM | 526%
O=C1CC(O)(C(F)(F)F)c2c(C3CCN(c4ccc(Cl)cn4)CC3)n[nH]c2N1 (single isomer, unassigned; (-)) [Compound 50-1, (−)-3-[1-(5-Chloropyridin-2-yl)piperidin-4-yl]-4-hydroxy-4-(trifluoromethyl)-1,4,5,7-tetrahydro-6H-pyrazolo[3,4-b]pyridin-6-one] | 45 nM | 433%
CC(C)c1ccc(N2CCC(c3n[nH]c4c3C(O)(C(F)(F)F)CC(=O)N4)CC2)nc1 (centres unmarked) [Example 64, 4-Hydroxy-3-{1-[5-isopropylpyridin-2-yl]piperidin-4-yl]-4-(trifluoromethyl)-1,4,5,7-tetrahydro-6H-pyrazolo[3,4-b]pyridin-6-one] | 56 nM | –
O=C1CC(O)(C(F)(F)F)c2c(C3CCN(c4ccc(C5CC5)cn4)CC3)n[nH]c2N1 (centres unmarked) [Example 99, 3-[1-(5-Cyclopropylpyridin-2-yl)piperidin-4-yl]-4-hydroxy-4-(trifluoromethyl)-1,4,5,7-tetrahydro-6H-pyrazolo[3,4-b]pyridin-6-one] | 75 nM | –
O=C1CC(O)(C(F)(F)F)c2c(C3CCN(c4ccc(-c5ccccc5)nn4)CC3)n[nH]c2N1 (centres unmarked) [Example 105, 4-Hydroxy-3-[1-(6-phenylpyridazin-3-yl)piperidin-4-yl]-4-(trifluoromethyl)-1,4,5,7-tetrahydro-6H-pyrazolo[3,4-b]pyridin-6-one] | 27 nM | –
O=C1CC(O)(C(F)(F)F)c2c(C3CCN(c4ccc(OC(F)F)nc4)CC3)n[nH]c2N1 (centres unmarked) [Example 54, 3-{1-[6-(Difluoromethoxy)pyridin-3-yl]piperidin-4-yl}-4-hydroxy-4-(trifluoromethyl)-1,4,5,7-tetrahydro-6H-pyrazolo[3,4-b]pyridin-6-one] | 70 nM | –
O=C1CC(O)(C(F)(F)F)c2c(C3CCN(c4ccc(OC(F)F)cc4)CC3)n[nH]c2N1 (centres unmarked) [Example 55, 3-{1-[4-(Difluoromethoxy)phenyl]piperidin-4-yl}-4-hydroxy-4-(trifluoromethyl)-1,4,5,7-tetrahydro-6H-pyrazolo[3,4-b]pyridin-6-one] | 79 nM | –
O=C1CC(O)(C(F)(F)F)c2c(C3CCN(c4ccc(C(F)(F)F)nn4)CC3)n[nH]c2N1 (centres unmarked) [Example 43, 4-Hydroxy-4-(trifluoromethyl)-3-{1-[6-(trifluoromethyl)pyridazin-3-yl]piperidin-4-yl}-1,4,5,7-tetrahydro-6H-pyrazolo[3,4-b]pyridin-6-one] | 56 nM | –
N#Cc1ccc(N2CCC(c3n[nH]c4c3C(O)(C(F)(F)F)CC(=O)N4)CC2)cn1 (centres unmarked) [Example 19, 5-{4-[4-Hydroxy-6-oxo-4-(trifluoromethyl)-4,5,6,7-tetrahydro-1H-pyrazolo[3,4-b]pyridin-3-yl]piperidin-1-yl}pyridine-2-carbonitrile] | 650 nM | –
COc1ccnc(N2CCC(c3n[nH]c4c3C(O)(C(F)(F)F)CC(=O)N4)CC2)c1 (centres unmarked) [Example 39, 4-Hydroxy-3-[1-(4-methoxypyridin-2-yl)piperidin-4-yl]-4-(trifluoromethyl)-1,4,5,7-tetrahydro-6H-pyrazolo[3,4-b]pyridin-6-one] | 330 nM | –
O=C1CC(O)(C(F)(F)F)c2c(C3CCN(c4cc(I)c(C(F)(F)F)cn4)CC3)n[nH]c2N1 (single isomer, unassigned) [Compound 103-1, 4-hydroxy-3-{1-[4-iodo-5-(trifluoromethyl)pyridin-2-yl]piperidin-4-yl}-4-(trifluoromethyl)-1,4,5,7-tetrahydro-6H-pyrazolo[3,4-b]pyridin-6-one] | 27 nM | –
O=C1CC(O)(C(F)(F)F)c2c(C3CCN(c4nnc(C(F)(F)F)s4)CC3)n[nH]c2N1 (centres unmarked) [Example 47, 4-Hydroxy-4-(trifluoromethyl)-3-{1-[5-(trifluoromethyl)-1,3,4-thiadiazol-2-yl]piperidin-4-yl}-1,4,5,7-tetrahydro-6H-pyrazolo[3,4-b]pyridin-6-one] | 96 nM | –
